Measured values as given in patent publication US11040958B2, “Triazole antimicrobial derivative, pharmaceutical composition and use thereof” (priority 2017, dated 2021).
Like-named read-outs stand apart in the source and are kept apart here.

Columns and labels:
[1] = In vitro metabolic stability in rat plasma; assay type: in vitro ADME; settings: 37°C, compound 10 μM
Protocol: The two reaction systems were set up three samples in parallel, while each sample was taken in an amount of 100 μL at 1 min, 2 mins, 5 mins, 15 mins, and 30 mins after the reaction, added to the centrifuge tube containing 400 μL of 0° C. pre-cooled internal standard working fluid and terminated the reaction. The sample was mixed by vortex for 1 min, centrifuged at 10,000×g for 10 mins in a 4° C. pre-cooled high-speed centrifuge. The supernatant was taken for HPLC detection. […] Concentration of mother liquor of compounds: 1 mM […]

[2] = In vitro metabolic stability in rat intestinal S9; assay type: in vitro ADME; settings: 37°C, S9 1 mg/mL, compound 10 μM, NADPH regeneration system
Protocol: (§1) The two reaction systems were set up three samples in parallel, while each sample was taken in an amount of 100 μL at 1 min, 2 mins, 5 mins, 15 mins, and 30 mins after the reaction, added to the centrifuge tube containing 400 μL of 0° C. pre-cooled internal standard working fluid and terminated the reaction. The sample was mixed by vortex for 1 min, centrifuged at 10,000×g for 10 mins in a 4° C. pre-cooled high-speed centrifuge. The supernatant was taken for HPLC detection. […] Concentration of mother liquor of compounds: 1 mM […] [table]

[3] = In vitro metabolic stability in human intestinal S9; assay type: in vitro ADME; settings: 37°C, S9 1 mg/mL, compound 10 μM, NADPH regeneration system
Protocol: as §1

[4] = Solubility test in deionized water (HPLC, external calibration); assay type: physicochemical
Protocol: Experimental condition: 25±2° C.
Dissolving medium: deionized water
Experimental method: 1 mg voriconazole and appropriate amount of each compound were weighed, placed in 1 ml deionized water separately, shaken vigorously for 30 s every 5 mins for 30 mins.

[5] = system: Candida albicans ATCC10231; assay: Systemic fungal infection in mice, intravenous administration, survival; assay type: in vivo; settings: ICR mice, tail vein, 5 mg/kg (calculated as voriconazole) once daily for 5 days
Protocol: (§2) ICR mice, weighing 18-22 g, male, provided by the Hubei Experimental Animal Center.
(§3) The standard strain Candida albicans was purchased from the American Type Culture Collection, and the strain number was ATCC10231.
Before the experiment, a small amount of Candida albicans was picked from the SDA medium preserved at 4° C. by inoculation circle, and inoculated into 1 ml YPD (Yeast Extract Peptone Dextrose Medium, the same below) culture medium, under shake cultivation at 30° C., 200 rpm, activated for 16 hours to make the fungus in the late stage of the exponential growth phase. Blood cell counting plate was used to count. The concentration of the broth was adjusted to 1*10^3-5*10^3 CFU/ml with RPMI1640 (Roswell Park Memorial Institute 1640, the same below) culture medium. The Candida albicans monoclone on the SDA plate was picked and inoculated into 1 ml YPD medium, cultured at 35° C., 200 rpm for 16 hours to the late exponential growth phase, 1% of which was then inoculated in fresh medium for 6 hours, centrifuged at 1000×g for 5 mins, washed three times with saline until the supernatant was colorless, while hemocytometer was used to count. The cell concentration was adjusted to 5*10^6/ml. The tail vein injection of 0.1 ml/10 g was carried out to cause a systemic fungal infection in mice. The mice were randomized into groups of 10 each. Since voriconazole was insoluble in vehicle (physiological saline), the mice of the voriconazole group in the test were injected a commercially available voriconazole (Pfizer, product lot number Z467001), that is, sulfobutyl ether-β-cyclodextrin used as a solubilizer, while other groups used physiological saline as a solvent. After establishing a systemic fungal infection model in mice for 2 hours, each administration group was administered with 5 mg/kg (calculated as voriconazole) drug in the tail vein, with the volume for administration of 0.1 ml/10 g. The mice in the model group were administered 0.1 ml/10 g of 0.9% sodium chloride solution, once daily, for 5 consecutive days. The death situation of the mice was inspected and the survival time was recorded. After a total of 7 days of observation, all dead mice were treated with fire using ethanol.

[6] = Solid stability test (25°C, RH 60%, 30 days); assay type: physicochemical; settings: 25°C±2°C, relative humidity 60%±2%
Protocol: Experimental conditions: 25° C.±2° C., relative humidity 60%±2%
Experimental instrument: Agilent 1260 HPLC; chamber for stability test
Experimental method: each compound of the present disclosure was packaged (the inner packaging material was a penicillin bottle; the outer packaging material was a double-layer aluminum foil bag, and a desiccant was added inside and outside the package), placed in the chamber for stability test, at a temperature of 25° C.±2° C. and a relative humidity of 60%±2%. The degradation situation of the compounds for 30 days was examined. The contents of total impurities before and after 30 days of each compound were compared and the results were as follows: […]

[7] = Pharmacokinetics after single intravenous administration in rats (plasma voriconazole); settings: rat, in vivo, 2.5 mg/kg
Protocol: Dosage for administration: 2.5 mg/kg (calculated as voriconazole)
Dosing volume for administration: 2.5 ml/kg
Drug concentration: 1 mg/mL (calculated as voriconazole)
Route of administration: tail vein injection Experimental animals: SD rats, SPF grade, weighing 180-220 g, half male and half female; the SD rats were randomized into groups of 6 animals each, three males and three females in each group. Experimental method: Blood samples were collected at different time points after tail vein administration, and the plasma concentrations of voriconazole were measured.

[8] = Pharmacokinetics after single gastrointestinal (gavage) administration in rats (plasma voriconazole); assay type: in vivo; settings: SD rats, 2.5 mg/kg (calculated as voriconazole)
Protocol: Dosing volume for administration: 10 ml/kg
Solvent medium for administration: except for the positive voriconazole group using CMC-Na, the other groups using normal saline
Route of administration: gavage

[9] = system: Candida albicans ATCC10231; assay: Systemic fungal infection in mice, administration by gavage, survival; assay type: in vivo; settings: ICR mice, 5 mg/kg (calculated as voriconazole) once daily for 5 days
Protocol: as §2, §3
Before the experiment, a small amount of Candida albicans was picked from the SDA medium preserved at 4° C. by inoculation circle, inoculated into 1 ml of YPD culture medium, and cultured at 30° C. while being shaken at 200 rpm for 16 hours to make the fungus in the late stage of exponential growth. Blood cell counting plate was used to count, and the concentration of the broth was adjusted to 1*10^3−5*10^3 CFU/ml with RPMI1640 medium. The Candida albicans monoclone on the SDA plate was picked, inoculated into 1 ml YPD medium, cultured at 35° C., 200 rpm for 16 hours to the late exponential growth phase, 1% of which was then inoculated in fresh medium for 6 hours, centrifuged at 1000×g for 5 mins, washed three times with saline until the supernatant was colorless, while hemocytometer was used to count. The cell concentration was adjusted to 5*10^6/ml. The tail vein injection of 0.1 ml/10 g was carried out to cause a systemic fungal infection in mice. The mice were randomized into groups of 10 each. Voriconazole used was in the form of a suspension prepared with CMC-Na (Shanghai Panhong Chemical Technology Co., Ltd.), while other tested drugs were dissolved in saline and sonicated until clarified for administration. After establishing a systemic fungal infection model in mice for 2 hours, each group was administered by gavage with 5 mg/kg (calculated as voriconazole) drug, with the volume for administration of 0.1 ml/10 g. The mice in the model group were administered 0.1 ml/10 g of 0.9% sodium chloride solution, once daily, for 5 consecutive days. The death situation of the mice was inspected and the survival time was recorded. After a total of 7 days of observation, all dead mice were treated with fire using ethanol.

SMILES	Rat plasma T1/2 [1] [min]	Rat intestinal S9 T1/2 [2] [min]	Human intestinal S9 T1/2 [3] [min]	Content increase of total impurity (25° C., placed for 30 days) [6] [%]	Solubility ([4]; deionized water, 25±2°C) [mg/mL]	AUClast [7] [ng·h/mL]	T1/2 [7]	AUClast [8] [ng·h/mL]	T1/2 [8] [min]	survival rate of mice, day 1 [9] [%]	survival rate of mice, day 2 [9] [%]	survival rate of mice, day 3 [9] [%]	survival rate of mice, day 4 [9] [%]	survival rate of mice, day 5 [9] [%]	survival rate of mice, day 6 [9] [%]	other results
CC(OC(=O)N(C)c1ncccc1COC(=O)[C@@H](N)CCN)[n+]1cnn(C[C@](O)(c2ccc(F)cc2F)[C@@H](C)c2ncncc2F)c1.[Cl-] (stereo partly shown) [QR16005]	8.25 ± 1.28	26.52 ± 3.69	18.21 ± 2.04													Solubility [4]: >50 mg/mL
CC(OC(=O)N(C)c1ccccc1COC(=O)[C@@H](N)CCCN)[n+]1cnn(C[C@](O)(c2ccc(F)cc2F)[C@@H](C)c2ncncc2F)c1.[Cl-] (stereo partly shown) [QR16007]				0.73	>50	10278 ± 3225	173 ± 73.2 min									survival rate of mice, day 1 ([5]; day 1): 100%; survival rate of mice, day 2 ([5]; day 2): 100%; survival rate of mice, day 3 ([5]; day 3): 100%; survival rate of mice, day 4 ([5]; day 4): 100%; survival rate of mice, day 5 ([5]; day 5): 100%; survival rate of mice, day 6 ([5]; day 6): 90%
CC(OC(=O)N(C)c1ncccc1COC(=O)[C@@H](N)CCCNC(N)=O)[n+]1cnn(C[C@](O)(c2ccc(F)cc2F)[C@@H](C)c2ncncc2F)c1.[Cl-] (stereo partly shown) [QR16009]				0.71	>50		similar	7225 ± 1310	119 ± 52.2	100	80	80	70	70	70	Cmax [8]: 925 ± 121 ng/mL; survival rate of mice, day 7 ([9]; day 7): 70%
CNCc1cccnc1N(C)C(=O)OC(C)[n+]1cnn(C[C@](O)(c2ccc(F)cc2F)[C@@H](C)c2ncncc2F)c1 (stereo partly shown) [QR16023]				2.63			similar			100	90	70	70	60	60	solubility at 30 min ([4]; 25 °C, thermodynamic from solid, deionized water, 25±2°C): > 50 mg/mL; survival rate of mice, day 7 ([9]; day 7, 5 mg/kg): same with the positive drug voriconazole group
CC(OC(=O)OCCOCCOP(=O)(O)O)[n+]1cnn(C[C@](O)(c2ccc(F)cc2F)[C@@H](C)c2ncncc2F)c1 (stereo partly shown) [QR16030]				0.94	>50			4324 ± 1362	152 ± 63	100	90	80	70	60	50	
CN[C@@H](CSC(=O)OC(C)[n+]1cnn(C[C@](O)(c2ccc(F)cc2F)[C@@H](C)c2ncncc2F)c1)C(=O)O.Cl.[Cl-] (stereo partly shown) [QR16035]	11.85 ± 3.77	35.62 ± 8.12	29.12 ± 2.09	1.21		8256 ± 1256										
